Earlier results in article PMC9177108 (The Oncologist, 2022).

Key:
[1] = tested on: patients with RM-NPC; details: 37 recruited patients with RM-NPC; cited from earlier work
[2] = tested on: NPC patients; details: 58 NPC patients, cited from earlier work
[3] = tested on: relapsed and refractory patients with NPC; details: cited from earlier work
[4] = tested on: patients with NPC; details: 33 patients with NPC; cited from earlier work
[5] = tested on: patients with advanced NPC; details: first-line regimen; cited from earlier work

**Q.** Which results are given for `CNC(=O)c1ccccc1Sc1ccc2c(/C=C/c3ccccn3)n[nH]c2c1` [Axitinib]?
**A.** DCR [1]: 78.4; ORR [1]: 19%; median PFS [1]: 5 months; overall survival (OS) [1]: 10 months

**Q.** For `CCN(CC)CCN1CCc2[nH]c(/C=C3\C(=O)Nc4ccc(F)cc43)c(C)c2C1=O` [Famitinib], which ORR [2] is on record?
**A.** 6.9%

**Q.** What about the “median PFS” value [2] of the same compound?
**A.** 3.2 months

**Q.** What about the DCR ([2]; at 3 months) of the same compound?
**A.** 32.8%

**Q.** Which ORR ([3]; 51 patients (16/51), no response to first- or second-line chemotherapy) does the source give for `N#CC1(c2ccc(NC(=O)c3cccnc3NCc3ccncc3)cc2)CCCC1` [apatinib] here?
**A.** 31.4%

**Q.** And the OS ([3]; 51 patients)?
**A.** 16 months

**Q.** What about the “median PFS” value ([3]; 51 patients) of the same compound?
**A.** 9 months

**Q.** Which ORR [4] does the source give for `Cc1ccc(Nc2nccc(N(C)c3ccc4c(C)n(C)nc4c3)n2)cc1S(N)(=O)=O` [pazopanib] here?
**A.** 6.1%

**Q.** With cisplatin and 5-fluorouracil as the compound, how does the “median PFS” value [5] read?
**A.** 11-14 months

**Q.** And the response rate [5]?
**A.** 66-78%
